Values quoted from earlier work as cited in patent publication US9457321B2, “Furanone containing polymer compound with bacteria-adhesion properties” (Stellenbosch University, priority 2012, dated 2016).

System: P. aeruginosa, S. aureus, E. coli and Enterococci

CC1=C(O)C(=O)C(C)O1 (stereo not shown) [DMHF, 2,5-dimethyl-4-hydroxy-3(2H)-furanone]
antimicrobial efficacy: exceptional antimicrobial efficacy
